Results: patent publication US7671055B2, “Insecticidal 3-(dihaloalkenyl) phenyl derivatives” (FMC Corporation, priority 2004, dated 2010)

Tested on: tobacco budworm (Heliothis virescens [Fabricius])
Experiment: surface-treated diet test against tobacco budworm
Format: in vivo
Conditions: 0.25 millimolar on surface of diet; second instar larvae; five-day exposure; inhibition of insect weight relative to untreated controls
Experimental: Candidate insecticides were evaluated for activity against the tobacco budworm (Heliothis virescens [Fabricius]) in a surface-treated diet test.
In this test one mL of molten (65-70° C.) wheat germ-based artificial diet was pipetted into each well of a four by six (24 well) multi-well plate (ID#430345-15—[…].×17.6 mm deep; Corning Costar Corp., One Alewife Center, Cambridge, Mass. 02140). The diet was allowed to cool to ambient temperature before treatment with candidate insecticide.
For a determination of insecticidal activity, solutions of the candidate insecticides were prepared for testing using a Packard 204DT Multiprobe® Robotic System (Packard Instrument Company, 800 Research Parkway, Meriden, Conn. 06450), in which the robot first diluted a standard 50 millimolar DMSO solution of candidate insecticide with a 1:1 water/acetone solution (V/V) in a ratio of 1:7 stock solution to water/acetone. The robot subsequently pipetted 40 microliters of the so-prepared solution onto the surface of the diet in each of three wells in the 24 multi-well plate. The process was repeated with solutions of seven other candidate insecticides. […]
After the five-day exposure period insecticidal activity for each rate of application of candidate insecticide was assessed as percent inhibition of insect weight relative to the weight of insects from untreated controls. […]

## CC1(C)Cc2cccc(OCCCCOc3cc(OCC=C(Cl)Cl)cc(Cl)c3Cl)c2O1 [Compound 2, 7-{4-[5-(3,3-dichloroprop-2-enyloxy)-2,3-dichlorophenoxy]butoxy}-2,2-dimethyl-2,3-dihydro-benzo[b]furan]
  Percent Growth Inhibition: 100%

## FC(F)(F)c1ccc(N2CCN(c3cc(OCC=C(Cl)Cl)cc(Cl)c3Br)CC2)nc1 [Compound 19, 5-(3,3-dichloroprop-2-enyloxy)-2-bromo-3-chloro-1-{4-[5-(trifluoromethyl)(2-pyridyl)]piperazinyl}-benzene]
  Percent Growth Inhibition: 100%
